Literature values in patent US4513029A, “Sea water antifouling method” (priority 1982, dated 1985).

Tested on: mice
Conditions: oral administration to mice (after 24 hours)

SMILES | LD50
[OH][Sn]([c]1ccccc1)([c]1ccccc1)[c]1ccccc1 [triphenyltin hydroxide] | not more than 1,000 mg/kg
CC(=O)[O-].c1cc[c]([Sn+]([c]2ccccc2)[c]2ccccc2)cc1 [tripenyltin acetate] | not more than 1,000 mg/kg
[Cl][Sn]([c]1ccccc1)([c]1ccccc1)[c]1ccccc1 [triphenyltin chloride] | not more than 1,000 mg/kg
[Cu].[O]=[Cu] [copper suboxide] | not more than 1,000 mg/kg
